From patent US9896445B2, “Heterocyclic inhibitors of ERK1 and ERK2 and their use in the treatment of cancer” (Asana Biosciences, LLC, priority 2015, dated 2018)

Columns and labels:
ERK1 = molecular target: T1, ERK1 (Homo sapiens, UniProt P27361); experiment: ERK1 HTRF (biochemical) assay; conditions: HTRF
T1 construct: purchased Jubilant Biosys
Procedure: ERK1 and ERK2 HTRF (Biochemical) Assays
These assays employed a homogeneous time resolved fluorescence (HTRF) technique. […] The plate was incubated at room temperature for 60 min with shaking. […] The IC50 values (half maximal inhibitory concentration values) were subsequently determined using a sigmoidal dose-response curve (variable slope) in GraphPad Prism® 5 software.

ERK2 = molecular target: T2, ERK2 (Homo sapiens, UniProt P28482); experiment: ERK2 HTRF (biochemical) assay; conditions: HTRF
T2 construct: purchased Jubilant Biosys
T2 sequence (P28482 whole entry): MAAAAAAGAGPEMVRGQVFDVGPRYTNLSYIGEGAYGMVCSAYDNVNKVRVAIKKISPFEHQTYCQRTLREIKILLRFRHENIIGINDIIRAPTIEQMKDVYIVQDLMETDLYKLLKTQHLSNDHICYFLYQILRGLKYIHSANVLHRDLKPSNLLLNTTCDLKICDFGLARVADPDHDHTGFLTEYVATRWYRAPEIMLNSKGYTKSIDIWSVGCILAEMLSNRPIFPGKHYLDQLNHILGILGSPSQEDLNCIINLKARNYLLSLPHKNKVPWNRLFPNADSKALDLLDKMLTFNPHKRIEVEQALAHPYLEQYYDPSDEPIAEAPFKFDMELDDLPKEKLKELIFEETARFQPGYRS
Method in brief: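 Readout was time-resolved FRET between europium anti-phospho-MBP and streptavidin-APC after a 60-min room-temperature kinase step. That step used ERK2 (25 nM in enzyme mix), biotinylated MBP peptide (1 uM) and ATP (24 uM) from the substrate mix, in pH 7.5 Tris buffer.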

T1 sequence (P27361 whole entry): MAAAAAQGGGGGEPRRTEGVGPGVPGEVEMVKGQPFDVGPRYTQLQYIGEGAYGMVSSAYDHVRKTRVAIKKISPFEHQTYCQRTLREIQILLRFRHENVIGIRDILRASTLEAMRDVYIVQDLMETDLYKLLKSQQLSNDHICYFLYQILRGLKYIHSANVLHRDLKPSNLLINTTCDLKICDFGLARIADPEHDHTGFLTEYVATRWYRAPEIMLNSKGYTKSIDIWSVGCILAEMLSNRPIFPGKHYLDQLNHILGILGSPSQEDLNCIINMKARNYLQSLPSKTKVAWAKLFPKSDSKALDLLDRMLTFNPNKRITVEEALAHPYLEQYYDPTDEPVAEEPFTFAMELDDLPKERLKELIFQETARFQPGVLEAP

Row | IC50 (ERK1) [nM] | IC50 (ERK2) [nM] | SMILES
1 | < 50 | ≤ 50 | O=C(NC(CO)c1ccccc1)c1ccn(-c2ccnc(Nc3ccc(F)cc3)c2)c1 (stereo not shown) [Compound 84, 1-(2-((4-fluoro-phenyl)amino)pyridin-4-yl)-N-(2-hydroxy-1-phenyl-ethyl)-1H-pyrrole-3-carboxamide]
2 | 100 to 500 | 100 to 500 | Cc1cnc(Nc2ccc(F)cc2Cl)cc1-n1cnc(C(=O)NC(CO)c2ccccc2)c1 (stereo not shown) [Compound 85, 1-(2-((2-chloro-4-fluorophenyl)amino)-5-methylpyridin-4-yl)-N-(2-hydroxy-1-phenylethyl)-1H-imidazole-4-carboxamide]
3 | < 50 | ≤ 50 | Cc1cnc(Nc2ccc3c(c2)OCO3)nc1-n1ccc(C(=O)N[C@H](CO)c2ccc(F)c(Cl)c2)c1 [Compound 87]
4 | < 50 | ≤ 50 | Cc1cnc(Nc2ccc3c(c2)OCO3)cc1-n1cnc(C(=O)NC(CO)c2cccc(Cl)c2)c1 (stereo not shown) [Compound 88, 1-(2-(benzo[d][1,3]dioxol-5-ylamino)-5-methylpyridin-4-yl)-N-(1-(3-chloro-phenyl)-2-hydroxy-ethyl)-1H-imidazole-4-carboxamide]
5 | 100 to 500 | ≤ 50 | Cc1cnc(Nc2ccccc2)cc1-n1cnc(C(=O)NC(CO)c2ccccc2)c1 (stereo not shown) [Compound 89, N-(2-hydroxy-1-phenylethyl)-1-(5-methyl-2-(phenyl-amino)pyridin-4-yl)-1H-imidazole-4-carboxamide]
6 | 100 to 500 | ≤ 50 | Cc1cnc(Nc2ccc3c(c2)OC(F)(F)O3)cc1-n1cnc(C(=O)NC(CO)c2cccc(Cl)c2)c1 (stereo not shown) [Compound 90, N-(1-(3-chlorophenyl)-2-hydroxyethyl)-1-(2-((2,2-difluoro-benzo[d][1,3]dioxol-5-yl)amino)-5-methylpyridin-4-yl)-1H-imidazole-4-carboxamide]
7 | < 50 | ≤ 50 | Cc1cnc(Nc2ccc(F)cc2Cl)cc1-n1ccc(C(=O)NC(CO)c2cccc(Cl)c2)c1 (stereo not shown) [Compound 91, 1-(2-((2-chloro-4-fluorophenyl)amino)-5-methylpyridin-4-yl)-N-(1-(3-chlorophenyl)-2-hydroxyethyl)-1H-pyrrole-3-carboxamide]
8 | < 50 | ≤ 50 | Cc1cnc(Nc2ccc3c(c2)OC(F)(F)O3)cc1-n1ccc(C(=O)NC(CO)c2cccc(Cl)c2)c1 (stereo not shown) [Compound 92, N-(1-(3-chlorophenyl)-2-hydroxyethyl)-1-(2-((2,2-difluoro-benzo[d][1,3]dioxol-5-yl)amino)-5-methylpyridin-4-yl)-1H-pyrrole-3-carboxamide]
9 | < 50 | ≤ 50 | Cc1cnc(NC2CCOCC2)nc1-n1cnc(C(=O)NCc2cccc(Cl)c2CO)c1 [Compound 93, N-(3-chloro-2-(hydroxymethyl)benzyl)-1-(5-methyl-2-((tetrahydro-2H-pyran-4-yl)amino)pyrimidin-4-yl)-1H-imidazole-4-carboxamide]
10 | < 50 | ≤ 50 | Cc1cnc(NC2CCOCC2)nc1-n1cnc(C(=O)NCc2ccccc2CCO)c1 [Compound 94, N-(2-(2-hydroxyethyl)benzyl)-1-(5-methyl-2-((tetrahydro-2H-pyran-4-yl)amino)pyrimidin-4-yl)-1H-imidazole-4-carboxamide]
11 | 50 to 100 | ≤ 50 | Cc1cnc(Nc2ccc3c(c2)OC(C)(C)O3)nc1-n1ccc(C(=O)NC(CO)c2ccccc2)c1 (stereo not shown) [Compound 95, 1-(2-((2,2-dimethylbenzo[d] [1,3]dioxol-5-yl)-amino)-5-methyl-pyrimidin-4-yl)-N-(2-hydroxy-1-phenylethyl)-1H-pyrrole-3-carboxamide]
12 | < 50 | ≤ 50 | Cc1cnc(Nc2ccc3c(c2)OC(C)(C)O3)nc1-n1ccc(C(=O)NC(CO)c2cccc(Cl)c2)c1 (stereo not shown) [Compound 96, N-(1-(3-chloro-phenyl)-2-hydroxyethyl)-1-(2-((2,2-dimethyl-benzo[d][1,3]dioxol-5-yl)amino)-5-methylpyrimidin-4-yl)-1H-pyrrole-3-carboxamide]
13 | < 50 | ≤ 50 | Cc1cnc(Nc2ccc(F)cc2)cc1-n1ccc(C(=O)NC(CN)c2ccccc2)c1 (stereo not shown) [Compound 98, N-(2-amino-1-phenylethyl)-1-(2-((4-fluorophenyl)-amino)-5-methyl-pyridin-4-yl)-1H-pyrrole-3-carboxamide]
14 | 100 to 500 | 100 to 500 | Cc1cnc(Nc2ccc3c(c2)OC(F)(F)O3)cc1-n1cnc(C(=O)NC(CN)Cc2ccccc2)c1 (stereo not shown) [Compound 99, N-(1-amino-3-phenylpropan-2-yl)-1-(2-((2,2-difluorobenzo[d] [1,3]dioxol-5-yl)amino)-5-methylpyridin-4-yl)-1H-imidazole-4-carboxamide]
15 | 50 to 100 | ≤ 50 | CC[C@@H](CO)Nc1cc(-n2ccc(C(=O)NC(CO)c3ccccc3)c2)c(C)cn1 (stereo partly drawn) [Compound 100, N-(2-hydroxy-1-phenylethyl)-1-(2-(((S)-1-hydroxy-butan-2-yl)amino)-5-methylpyridin-4-yl)-1H-pyrrole-3-carboxamide]
16 | < 50 | ≤ 50 | Cc1cnc(Nc2cc3c(cc2Cl)OCO3)nc1-n1ccc(C(=O)NC(CO)c2cccc(Cl)c2)c1 (stereo not shown) [Compound 101, 1-(2-((6-chloro-benzo[d][1,3]dioxol-5-yl)amino)-5-methylpyrimidin-4-yl)-N-(1-(3-chlorophenyl)-2-hydroxyethyl)-1H-pyrrole-3-carboxamide]
17 | 100 to 500 | ≤ 50 | Cc1cnc(Nc2ccc3c(c2)OCO3)nc1-n1ccc(C(=O)NC(CO)c2cccnc2)c1 (stereo not shown) [Compound 103, 1-(2-(benzo[d][1,3]dioxol-5-ylamino)-5-methylpyrimidin-4-yl)-N-(2-hydroxy-1-(pyridin-3-yl)ethyl)-1H-pyrrole-3-carboxamide]
18 | < 50 | ≤ 50 | O=C(NC(CO)c1cccc(Cl)c1)c1cn(-c2cc(Nc3ccccc3)ncc2Cl)cn1 (stereo not shown) [Compound 106, 1-(5-Chloro-2-(phenylamino)pyridin-4-yl)-N-(1-(3-chlorophenyl)-2-hydroxyethyl)-1H-imidazole-4-carboxamide]
19 | < 50 | ≤ 50 | Cc1cn(-c2nc(Nc3ccc(F)cc3)ncc2C)cc1C(=O)NC(CO)c1cccc(Cl)c1 (stereo not shown) [Compound 107, N-(1-(3-chlorophenyl)-2-hydroxyethyl)-1-(2-((4-fluoro-phenyl)amino)-5-methylpyrimidin-4-yl)-4-methyl-1H-pyrrole-3-carboxamide]
20 | < 50 | ≤ 50 | Cc1cn(-c2nc(Nc3ccc(F)cc3)ncc2C)cc1C(=O)NC(CO)c1ccccc1 (stereo not shown) [Compound 108, 1-(2-((4-fluoro-phenyl)amino)-5-methylpyrimidin-4-yl)-N-(2-hydroxy-1-phenylethyl)-4-methyl-1H-pyrrole-3-carboxamide]
21 | < 50 | ≤ 50 | CC[C@@H](CO)Nc1cc(-n2ccc(C(=O)NC(CO)c3cccc(Cl)c3)c2)ccn1 (stereo partly drawn) [Compound 109, N-(1-(3-chloro-phenyl)-2-hydroxy-ethyl)-1-(2-(((S)-1-hydroxybutan-2-yl)amino)pyridin-4-yl)-1H-pyrrole-3-carboxamide]
22 | 50 to 100 | ≤ 50 | Cc1cn(-c2ccnc(Nc3ccc(F)cc3)n2)cc1C(=O)NC(CO)c1cccc(Cl)c1 (stereo not shown) [Compound 110, N-(1-(3-chloro-phenyl)-2-hydroxyethyl)-1-(2-((4-fluorophenyl)-amino)pyrimidin-4-yl)-4-methyl-1H-pyrrole-3-carboxamide]
23 | 50 to 100 | ≤ 50 | O=C(NC(CO)c1cccc(Cl)c1)c1ccn(-c2ccnc(Nc3ccc(F)cc3Cl)n2)c1 (stereo not shown) [Compound 111, 1-(2-((2-chloro-4-fluorophenyl)amino)pyrimidin-4-yl)-N-(1-(3-chlorophenyl)-2-hydroxyethyl)-1H-pyrrole-3-carboxamide]
24 | < 50 | ≤ 50 | O=C(N[C@H](CO)c1cccc(Cl)c1)c1ccn(-c2ccnc(Nc3ccc(F)cc3Cl)n2)c1 [Compound 112, (S)-1-(2-((2-chloro-4-fluorophenyl)-amino)pyrimidin-4-yl)-N-(1-(3-chlorophenyl)-2-hydroxyethyl)-1H-pyrrole-3-carboxamide]
25 | 50 to 100 | ≤ 50 | Cc1cnc(Nc2ccc(F)cc2)nc1-n1ccc(C(=O)NC(CO)c2cccc(Cl)c2)c1 (stereo not shown) [Compound 113, N-(1-(3-chloro-phenyl)-2-hydroxy-ethyl)-1-(2-((4-fluorophenyl)amino)-5-methyl-pyrimidin-4-yl)-1H-pyrrole-3-carboxamide]
26 | < 50 | ≤ 50 | Cc1cnc(Nc2ccc(F)cc2)nc1-n1ccc(C(=O)NC(CO)c2ccccc2)c1 (stereo not shown) [Compound 114, 1-(2-((4-fluoro-phenyl)amino)-5-methylpyrimidin-4-yl)-N-(2-hydroxy-1-phenylethyl)-1H-pyrrole-3-carboxamide]
27 | < 50 | ≤ 50 | Cc1cnc(NC2CC2)nc1-n1ccc(C(=O)NC(CO)c2cccc(Cl)c2)c1 (stereo not shown) [Compound 115, N-(1-(3-chloro-phenyl)-2-hydroxy-ethyl)-1-(2-(cyclopropylamino)-5-methylpyrimidin-4-yl)-1H-pyrrole-3-carboxamide]
28 | < 50 | ≤ 50 | O=C(N[C@H](CO)c1cccc(Cl)c1)c1cn(-c2ccnc(NC3CC3)c2)cn1 [Compound 116, (S)-N-(1-(3-chlorophenyl)-2-hydroxyethyl)-1-(2-(cyclopropylamino)pyridin-4-yl)-1H-imidazole-4-carboxamide]
29 | 100 to 500 | 50 to 100 | Cc1cnc(NC(C)c2ccccc2)nc1-n1ccc(C(=O)NC(CO)c2ccccc2)c1 (stereo not shown) [Compound 117, N-(2-hydroxy-1-phenylethyl)-1-(5-methyl-2-((1-phenylethyl)amino)pyrimidin-4-yl)-1H-pyrrole-3-carboxamide]
